# Data reported in the NIST ThermoML archive (doi:10.1021/je050029o).
# Numbers after ± are expanded uncertainties.
# Conditions: 298.15 K; 101.33 kPa; Liquid; Pycnometric method
row,Structure (SMILES),mass density [kg/m3]
1,CC1CCCCC1 [methylcyclohexane],765.2 ± 0.7
2,COC(C)(C)C [2-methoxy-2-methylpropane],740.6 ± 1.7
3,CO [methanol],786.8 ± 0.7
4,CCCCCCC [heptane],679.5 ± 0.6
